Some test systems named below: HL-60; SW-620; K562; HOP-62; NCI-H23; EKVX; DU-145; HCT-15; Hs-578T; UO-31; SF-295; OVCAR-4; HCT-116; CCRF-CEM; KM12; ACHN; IGROV-1; SNB-75.
Holding throughout (test): DTP human tumour cell line panel, 48 h

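Cells were grown in 96-well plates and exposed to each compound for 48 hours at five concentrations; endpoints were interpolated linearly between bracketing concentrations, or set to the highest concentration if not reached. The concentration for 50% growth inhibition is given as GI50.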 Calls of active or inactive are those of the source. Rule as the data show it: active = GI50 up to about 1.1 µM and inactive = higher.

The term GI50 denotes the concentration giving 50% growth inhibition. In the case of `O=C1N(c2ccccc2)C2(c3ccccc3)CC3CCCC13S2` (configuration not stated), the GI50 is 26.2 µM (inactive) in the assay on HL-60; 50.7 µM (inactive) in the assay on SW-620; 38.7 µM (inactive) in the assay with K562; > 100 µM (inactive) in the assay with HOP-62; 50.5 µM (inactive) with NCI-H23; 71.8 µM (inactive) in the assay with EKVX. For the same molecule, the GI50 in the assay with DU-145 was > 100 µM (inactive); in the assay with HCT-15, 65.3 µM; in the assay with Hs-578T, 57.9 µM (inactive); with UO-31, 78.9 µM (inactive); with SF-295, 86.1 µM (inactive); in the assay with OVCAR-4, 27.8 µM (inactive). The GI50 in the assay with HCT-116 was 46.6 µM (inactive); in the assay on CCRF-CEM, 43.3 µM (inactive); in the assay with KM12 it was 54.8 µM (inactive); in the assay with ACHN it was > 100 µM (inactive); in the assay with IGROV-1 it was 78 µM (inactive).

Take `O=C(O)CCNS(=O)(=O)c1ccc([N+](=O)[O-])cc1`: the GI50 in the assay on SNB-75, in the assay with HL-60, in the assay on SW-620, in the assay with K562, in the assay on NCI-H23 and in the assay with EKVX was > 100 µM (inactive) each time. Further, the GI50 is more than 100 µM with HCT-15; 66.8 µM (inactive) with UO-31; > 100 µM (inactive) with SF-295; > 100 µM (inactive) in the assay on OVCAR-4; > 100 µM (inactive) in the assay with CCRF-CEM; > 100 µM (inactive) in the assay with KM12. The GI50 with ACHN and in the assay with IGROV-1 was > 100 µM (inactive) throughout.

As for `N#Cc1c2c(c(Nc3cccc(C(F)(F)F)c3)n3c1nc1ccccc13)CCC2`, the GI50 with SNB-75, in the assay with SW-620, in the assay with HOP-62, in the assay with NCI-H23, in the assay with EKVX and in the assay with DU-145 was > 100 µM (inactive) throughout. Further, the GI50 in the assay with HCT-15 was more than 100 µM; in the assay on SF-295 it was > 100 µM (inactive); with OVCAR-4 it was > 100 µM (inactive); in the assay with HCT-116, > 100 µM (inactive); in the assay with KM12, > 100 µM (inactive); in the assay on ACHN it was > 100 µM (inactive).

In the case of `OC(c1cccnc1)C(F)(F)c1nc2ccccc2o1` (configuration not stated), the GI50 in the assay on SNB-75 is > 100 µM (inactive); with HL-60, > 100 µM (inactive); with SW-620 it was > 100 µM (inactive); in the assay on K562, 56.5 µM (inactive); with HOP-62, > 100 µM (inactive); in the assay with NCI-H23, > 100 µM (inactive). Besides, the GI50 in the assay on EKVX is > 100 µM (inactive); with DU-145 it was 50.8 µM (inactive); with HCT-15, more than 100 µM; in the assay on Hs-578T, > 100 µM (inactive); in the assay with UO-31 it was > 100 µM (inactive); in the assay on OVCAR-4, > 100 µM (inactive). Besides, the GI50 in the assay on HCT-116, in the assay on CCRF-CEM, with KM12, in the assay on ACHN and in the assay with IGROV-1 was > 100 µM (inactive) in each case.

Take `O=C(/C=C/c1ccc(Cl)cc1)c1nc2ccccc2[nH]1`: the GI50 in the assay with SNB-75 is 11.7 µM (inactive); in the assay on SW-620, 13.4 µM (inactive); with K562 it was 5.58 µM (inactive); in the assay on HOP-62, 17.6 µM (inactive); in the assay on NCI-H23, 48.8 µM (inactive); in the assay on EKVX, 25.7 µM (inactive). The GI50 with DU-145 is 12.3 µM (inactive); in the assay with HCT-15, 17.5 µM; in the assay with Hs-578T, 72.1 µM (inactive); with UO-31 it was 10.9 µM (inactive); in the assay on SF-295, 22 µM (inactive); in the assay with OVCAR-4, 19 µM (inactive). The GI50 in the assay with HCT-116 is 16.7 µM (inactive); in the assay on CCRF-CEM, 3.54 µM (inactive); in the assay with KM12 it was 1.6 µM (inactive); in the assay on ACHN, 48.9 µM (inactive); in the assay on IGROV-1 it was 38.6 µM (inactive).

Source of the values: ChEMBL document CHEMBL1201862, “PubChem BioAssay data set” (2004).
